Results on 15 molecules are retold here after PubChem BioAssay (NCI).

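1) Cells in 96-well plates. 2) Compound, 48 h, 5 concentrations. 3) Linear interpolation between surrounding doses. 4) Unreached endpoint = highest concentration. The concentration for full growth arrest is given as TGI.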

What all share (experiment): NCI-60 cell line screen, 48 h
For assay [1], the system named is HCT-15 colon.
The test system of assay [2] is A549 NSCLC.
The test system of assay [3] is OVCAR-3 ovarian.
For assay [4], the system named is LOX IMVI melanoma.
In assay [5] the test system is EKVX NSCLC.
Assay [6] relates to HCC-2998 colon.
In assay [7] the test system is OVCAR-4 ovarian.
Assay [8] relates to HS 578T breast.
Assay [9] relates to A498 renal.
Assay [10] concerns HT29 colon.
Assay [11] relates to CAKI-1 renal.
Assay [12] concerns NCI/ADR-RES ovarian.
In assay [13] the test system is HCT-116 colon.
In assay [14] the test system is COLO 205 colon.
Assay [15] deals with K-562 leukemia.
For assay [16], the system named is HL-60(TB) leukemia.
Assay [17] concerns SN12C renal.
Assay [18] concerns UO-31 renal.
In assay [19] the test system is SK-MEL-2 melanoma.

On to `CC1CC(C)C(O)C(C2CC(CC(=O)NC3CCCCC3)CC(=O)O2)C1` (stereo unspecified), for which the TGI in [1], in assay [2], in assay [3], in [4], in [5] and in [6] was greater than 100 µM each time. For the same molecule, the TGI in [7], in assay [8], in [9], in assay [10], in assay [11] and in assay [12] was greater than 100 µM in each case. The TGI in assay [13], in assay [14], in assay [15], in assay [16] and in assay [17] was greater than 100 µM in each case.

As for `CCOC(=O)CN1C(=O)c2c(c(C)n(-c3ccccc3)c2C)C1=O`, the TGI in assay [1], in [2], in [18], in assay [3], in assay [5] and in assay [6] was greater than 100 µM throughout. Further, the TGI in assay [7], in assay [8], in assay [9], in assay [19], in assay [10] and in [11] was greater than 100 µM throughout. For the same molecule, the TGI in assay [12], in [13], in [14], in assay [15], in assay [16] and in assay [17] was greater than 100 µM each time.

As to `O=c1c2cc(-c3ccccc3)sc2nc2n1N=C(c1ccccc1)CS2`, the TGI was greater than 100 µM in assay [1]; greater than 100 µM in assay [2]; greater than 100 µM in [18]; 49.1 µM in [3]; greater than 100 µM in [4]; greater than 100 µM in assay [5]. Moreover, the TGI in assay [6] was greater than 100 µM; in assay [7] it was 61.4 µM; in assay [8], 49.4 µM; in assay [9], 71.9 µM; in assay [11], 34.3 µM; in [12] it was 57.5 µM. For the same molecule, the TGI in [13], in assay [14], in assay [15], in assay [16] and in assay [17] was greater than 100 µM each time.

On to `C=CCOC(=O)N1[C@H]2C#C/C=C\C#C[C@]3(O)C(=O)C[C@H](C)[C@]24O[C@]43C2=CC(=O)C=CC21OC` (stereo partly specified), for which the TGI in assay [1] is greater than 100 µM; in assay [2], greater than 100 µM; in assay [18], greater than 100 µM; in [5] it was greater than 100 µM; in assay [6] it was 77.6 µM; in assay [7] it was 84.2 µM. For the same molecule, the TGI in assay [8] was greater than 100 µM; in assay [9], 38 µM; in assay [19], 66.5 µM; in assay [10] it was 75.2 µM; in assay [11] it was greater than 100 µM; in [12] it was greater than 100 µM. For the same molecule, the TGI is 44.6 µM in assay [13]; 38.8 µM in assay [14]; greater than 100 µM in [15]; 92.8 µM in assay [16]; 67.4 µM in [17].

Regarding `COc1ccccc1/C=C/C1=NN(c2cccc(S(=O)(=O)O)c2)C2(C1)SCC(=O)N2c1nc2ccccc2s1` (stereo unspecified), the TGI in assay [1], in assay [2], in assay [18], in [4], in assay [5] and in assay [6] was greater than 100 µM throughout. Moreover, the TGI in [7], in assay [8], in assay [9], in assay [19], in [10] and in assay [11] was greater than 100 µM each time. Besides, the TGI in assay [12], in assay [13], in assay [14], in assay [15], in [16] and in assay [17] was greater than 100 µM in each case.

As to `Cc1c(NC(=S)NN)c(=O)n(-c2ccccc2)n1C`, the TGI in [1], in [2], in assay [18], in assay [3], in [4] and in [5] was greater than 100 µM in each case. Moreover, the TGI in assay [7], in [8], in assay [9], in assay [19], in assay [10] and in assay [11] was greater than 100 µM throughout. The TGI in assay [12], in [13], in [14], in assay [15], in [16] and in [17] was greater than 100 µM in each case.

As to `CCC1=NC(N/N=C/c2ccco2)=N/C1=C\c1ccccc1O`, the TGI is 42.7 µM in assay [1]; greater than 100 µM in assay [2]; greater than 100 µM in assay [18]; greater than 100 µM in assay [4]; greater than 100 µM in assay [5]; 89.8 µM in assay [6]. In addition, the TGI in assay [7] is 27.8 µM; in assay [8], greater than 100 µM; in assay [9], greater than 100 µM; in assay [19] it was 89.4 µM; in assay [10], greater than 100 µM; in assay [11], greater than 100 µM. Further, the TGI is greater than 100 µM in [12]; 56.8 µM in [13]; greater than 100 µM in assay [14]; greater than 100 µM in assay [15]; 60.6 µM in [16]; greater than 100 µM in assay [17].

As for `O=C(Nc1nnc(-c2ccccc2)o1)C(SC(=S)N1CCCCC1)c1ccccc1` (stereo unspecified), the TGI was 29.1 µM in assay [1]; 49.5 µM in [2]; 26.9 µM in assay [18]; 43.4 µM in assay [3]; 18 µM in [4]; 64.2 µM in [5]. Also, the TGI in assay [7] was greater than 100 µM; in [8], greater than 100 µM; in assay [9] it was 73.9 µM; in assay [19], 51.1 µM; in [10], 70 µM; in assay [11], 77.8 µM. The TGI was 33.2 µM in assay [12]; 32.1 µM in assay [13]; greater than 100 µM in assay [14]; greater than 100 µM in [15]; 8.38 µM in assay [16]; 42 µM in [17].

For `Cc1ccc(C2=Nc3cc(C)c(Cl)cc3S(=O)(=O)NN2)cc1`, the TGI in [1], in assay [2], in assay [18], in assay [3], in [4] and in assay [5] was greater than 100 µM each time. The TGI in [6] was greater than 100 µM; in [7], greater than 100 µM; in assay [8] it was greater than 100 µM; in assay [9], greater than 100 µM; in [10], greater than 100 µM; in assay [11], 75.7 µM. Besides, the TGI is greater than 100 µM in assay [12]; greater than 100 µM in assay [13]; greater than 100 µM in assay [14]; greater than 100 µM in [15]; 90.7 µM in [16]; greater than 100 µM in [17].

Turning to `NCCSc1nc2ccccc2s1`, the TGI in assay [1] was greater than 100 µM; in assay [2], greater than 100 µM; in assay [18], greater than 100 µM; in [3], greater than 100 µM; in assay [4] it was 90.8 µM; in assay [5], 80.6 µM. For the same molecule, the TGI in assay [7] was greater than 100 µM; in [8] it was 76.4 µM; in [9] it was 90.7 µM; in [19], 82.2 µM; in assay [10], greater than 100 µM; in assay [11], greater than 100 µM. Further, the TGI in assay [12], in assay [13], in assay [14], in [15], in assay [16] and in [17] was greater than 100 µM each time.

Regarding `CC(C)(C)c1cc(CC2C(=O)c3ccccc3C2=O)cc(C(C)(C)C)c1O`, the TGI in [1] was 14.8 µM; in assay [2] it was 87.2 µM; in assay [18], 10.5 µM; in assay [3] it was 9.53 µM; in assay [4], 16.2 µM; in [5], 28 µM. Further, the TGI in [7] was greater than 100 µM; in assay [8] it was 39.8 µM; in [9], 47.7 µM; in assay [19] it was 10.8 µM; in [10], 13.8 µM; in assay [11], 20.4 µM. Moreover, the TGI is greater than 100 µM in [12]; 14.1 µM in assay [13]; 30.7 µM in assay [14]; 13.1 µM in assay [15]; 6.69 µM in [16]; 35.9 µM in assay [17].

Turning to `COc1cc2c(/C=C3/C(=O)N(C)c4ccccc43)c(Cl)[nH]c2cc1C`, the TGI in assay [1] was 6.34 µM; in assay [2], 17 µM; in assay [18] it was greater than 58.3 µM; in assay [3], 0.929 µM; in [4], 11.4 µM; in assay [5], greater than 47.2 µM. Moreover, the TGI in assay [6] is 0.317 µM; in assay [7], 4.14 µM; in [8] it was greater than 100 µM; in assay [9], greater than 50.6 µM; in [19] it was 5.31 µM; in assay [11], greater than 52.8 µM. For the same molecule, the TGI in assay [12] was 2.67 µM; in assay [13] it was 7.02 µM; in [14], 0.579 µM; in [16], 0.666 µM; in assay [17] it was 7.99 µM.

With `CCCCCCCC1C(C)c2c([nH]c3ccccc23)C2C(=O)N(c3ccc(OC)cc3)C(=O)C21` (stereo unspecified), the TGI in assay [1] is greater than 10 µM; in [2], 5.33 µM; in assay [18], 6.86 µM; in [3] it was 6.71 µM; in assay [5] it was greater than 10 µM; in assay [6], greater than 10 µM. Moreover, the TGI in assay [7] was 5.8 µM; in [8], 4.88 µM; in assay [9], 5.47 µM; in assay [19], greater than 10 µM; in assay [10], greater than 7.4 µM; in [11] it was greater than 8.37 µM. Moreover, the TGI in assay [12] was 3.02 µM; in assay [13] it was 3.61 µM; in [14], greater than 10 µM; in assay [15] it was greater than 6.39 µM; in [16], 3.73 µM; in assay [17] it was greater than 5.95 µM.

On to `CN(C)c1ccc(/C=c2/c3ccccc3n3c2c2ccccc2[n+]3C)cc1`, for which the TGI worked out at 2.41 µM in assay [1]; 19.7 µM in [2]; 3.9 µM in [18]; 4.42 µM in assay [3]; 1.98 µM in assay [4]; 23.5 µM in [5]. Also, the TGI worked out at 3.33 µM in [6]; 8.3 µM in assay [7]; 4.42 µM in assay [8]; 5.14 µM in assay [9]; 0.782 µM in assay [19]; 8.53 µM in assay [11]. The TGI was determined as 32.8 µM in assay [12]; 2.74 µM in assay [13]; 0.488 µM in assay [14]; 4.71 µM in assay [15]; 0.428 µM in [16]; 2.55 µM in assay [17].

For `CCOC(=O)c1ccc(Nc2cnc3cc(C(F)(F)F)ccc3n2)cc1`, the TGI in assay [1], in assay [2], in [18], in assay [3], in assay [4] and in assay [5] was greater than 100 µM in each case. Also, the TGI in assay [6], in assay [7], in [8], in [9], in assay [10] and in assay [11] was greater than 100 µM each time. The TGI in assay [12], in assay [13], in assay [14], in assay [15], in assay [16] and in assay [17] was greater than 100 µM each time.
